The values below come from US5753617A, “Peptide inhibitors of cellular adhesion” (Centocor, Inc., priority 1995, dated 1998).

Where a SMILES comes first, the peptide text is derived from it. Bridges are numbered along the chain shown (N, C = ends). [ ]: non-standard residue; d: D form. Tic = O=C(O)[C@@H]1Cc2ccccc2CN1

The test addresses T1, P-selectin (Homo sapiens, UniProt P16109).
T1 construct: P-selectin is isolated from human platelet lysates; from tissue; host or cells: human platelets (outdated platelet packs from a blood bank)
T1 sequence (P16109 42-830): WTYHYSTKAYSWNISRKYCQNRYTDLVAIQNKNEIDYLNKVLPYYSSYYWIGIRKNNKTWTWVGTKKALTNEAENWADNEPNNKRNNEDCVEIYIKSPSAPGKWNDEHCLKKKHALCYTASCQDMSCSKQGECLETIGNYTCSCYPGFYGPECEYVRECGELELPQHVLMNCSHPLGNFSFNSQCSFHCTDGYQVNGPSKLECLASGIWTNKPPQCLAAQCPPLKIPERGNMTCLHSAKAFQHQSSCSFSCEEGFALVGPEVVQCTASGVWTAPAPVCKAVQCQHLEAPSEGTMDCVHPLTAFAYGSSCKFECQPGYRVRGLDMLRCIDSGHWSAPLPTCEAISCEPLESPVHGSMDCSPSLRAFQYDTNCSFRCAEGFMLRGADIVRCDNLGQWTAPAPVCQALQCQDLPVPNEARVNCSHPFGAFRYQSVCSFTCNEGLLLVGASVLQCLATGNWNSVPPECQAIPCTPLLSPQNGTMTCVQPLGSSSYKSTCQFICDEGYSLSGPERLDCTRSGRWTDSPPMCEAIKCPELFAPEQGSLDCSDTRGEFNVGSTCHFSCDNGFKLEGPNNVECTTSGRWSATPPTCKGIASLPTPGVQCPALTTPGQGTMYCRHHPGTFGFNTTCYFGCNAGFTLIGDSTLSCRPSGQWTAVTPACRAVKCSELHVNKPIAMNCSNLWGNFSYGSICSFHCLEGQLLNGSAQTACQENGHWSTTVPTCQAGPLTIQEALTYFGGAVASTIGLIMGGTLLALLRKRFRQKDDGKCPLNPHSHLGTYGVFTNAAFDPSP
Kind of test: Inhibition of human neutrophil adhesion to purified P-selectin immobilized on plastic wells. It counts as cell-based. To be noted: inhibiting the binding of human neutrophils to P-selectin. Put shortly: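 Isolated human neutrophils (2×10^5 per well) in HBSS with Ca2+/Mg2+ and HSA added to wells coated overnight at 4° C with platelet-derived P-selectin (5 micrograms/mL), HSA-blocked; 20 min at 22° C. Nonadherent cells removed by inverted centrifugation at 150 g; adherent cells quantified by myeloperoxidase activity.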
A word on the IC50: it is the concentration that gives 50% inhibition. Read a low IC50 as inhibition by little substance. In turn, `CC(C)[C@@H](NC(=O)[C@@H](Cc1c[nH]c2ccccc12)NC(=O)[C@H](NC(=O)[C@@H](Cc1c[nH]c2ccccc12)NC(=O)[C@H]1CSC[C@@H](NC(=O)[C@@H](CCCCN)NC(=O)[C@H](N)CCCNC(=N)N)C(=O)NCC(=O)N[C@@H](Cc2ccccc2)C(=O)N1)[C@H](C)O)C(N)=O` [(81)] returned an IC50 of 10.6 µM.

Compound `CC(C)[C@@H](NC(=O)[C@@H](Cc1c[nH]c2ccccc12)NC(=O)[C@H](NC(=O)[C@@H]1CCCN1C(=O)[C@H]1CSSC[C@@H](NC(=O)[C@@H](CCCCN)NC(=O)[C@H](N)CCCNC(=N)N)C(=O)NCC(=O)N[C@@H](Cc2ccccc2)C(=O)N1)[C@H](C)O)C(N)=O` [(82)] (H-[dR][dK][dC]GF[dC]P[dT][dW][dV]-NH2; disulfide 3-6) displayed a concentration for half-maximal inhibition (IC50) of 547 µM.

The compound `CC(C)[C@@H](NC(=O)[C@@H](Cc1c[nH]c2ccccc12)NC(=O)[C@H](NC(=O)[C@@H](Cc1c[nH]c2ccccc12)NC(=O)[C@H]1CSSC[C@@H](NC(=O)[C@@H](CCCCN)NC(=O)[C@H](N)CCCNC(=N)N)C(=O)N2CCC[C@H]2C(=O)NCC(=O)N1)[C@H](C)O)C(N)=O` [(83)] (H-[dR][dK][dC]PG[dC][dW][dT][dW][dV]-NH2; disulfide 3-6) came in with an IC50 of 983 µM.

As to `CC(C)[C@@H](NC(=O)[C@@H](Cc1c[nH]c2ccccc12)NC(=O)[C@H](NC(=O)[C@@H](Cc1c[nH]c2ccccc12)NC(=O)[C@H]1CSSC[C@@H](NC(=O)[C@@H](CCCCN)NC(=O)[C@H](N)CCCNC(=N)N)C(=O)NCC(=O)N2Cc3ccccc3C[C@H]2C(=O)N1)[C@H](C)O)C(N)=O` [(86)] (H-[dR][dK][dC]G[Tic][dC][dW][dT][dW][dV]-NH2; disulfide 3-6), the IC50 turned out to be 83.4 µM.

`CC(C)[C@@H](NC(=O)[C@@H](Cc1c[nH]c2ccccc12)NC(=O)[C@H](NC(=O)[C@@H](Cc1c[nH]c2ccccc12)NC(=O)[C@H]1CSSC[C@@H](NC(=O)[C@@H](CCCCN)NC(=O)[C@H](N)CCCNC(=N)N)C(=O)NCC(=O)N[C@@H](Cc2ccc(O)cc2)C(=O)N1)[C@H](C)O)C(N)=O` [(87)] (H-[dR][dK][dC]GY[dC][dW][dT][dW][dV]-NH2; disulfide 3-6) yielded an IC50 of 5.7 µM.

As for `CC(C)[C@@H](NC(=O)[C@@H](Cc1c[nH]c2ccccc12)NC(=O)[C@H](NC(=O)[C@@H](Cc1c[nH]c2ccccc12)NC(=O)[C@@H]1CSSC[C@@H](NC(=O)[C@@H](CCCCN)NC(=O)[C@H](N)CCCNC(=N)N)C(=O)NCC(=O)N[C@@H](Cc2ccccc2)C(=O)N1)[C@H](C)O)C(N)=O` [(91)] (H-[dR][dK][dC]GFC[dW][dT][dW][dV]-NH2; disulfide 3-6), the concentration for half-maximal inhibition (IC50) was 42.7 µM.

`CC[C@H](C)[C@@H]1NC(=O)[C@H](NC(=O)[C@@H](CCCCN)NC(=O)[C@H](N)CCCNC(=N)N)CSSC[C@H](C(=O)N[C@H](Cc2c[nH]c3ccccc23)C(=O)N[C@@H](C(=O)N[C@H](Cc2c[nH]c3ccccc23)C(=O)N[C@@H](C(N)=O)C(C)C)[C@H](C)O)NC(=O)[C@@H]2CCCN2C1=O` [(95)] (H-[dR][dK][dC]IP[dC][dW][dT][dW][dV]-NH2; disulfide 3-6): the concentration for half-maximal inhibition (IC50) was 26.8 µM.

Take `CC(C)[C@@H](NC(=O)[C@H](Cc1c[nH]c2ccccc12)NC(=O)[C@H](NC(=O)[C@@H](Cc1c[nH]c2ccccc12)NC(=O)[C@H]1CSSC[C@@H](NC(=O)[C@@H](CCCCN)NC(=O)[C@H](N)CCCNC(=N)N)C(=O)NCC(=O)N[C@@H](Cc2ccccc2)C(=O)N1)[C@H](C)O)C(N)=O` [(96)] (H-[dR][dK][dC]GF[dC][dW][dT]W[dV]-NH2; disulfide 3-6): the IC50 was 26.7 µM.

In turn, `CC(C)[C@@H](NC(=O)[C@@H](Cc1c[nH]c2ccccc12)NC(=O)[C@@H](NC(=O)[C@@H](Cc1c[nH]c2ccccc12)NC(=O)[C@H]1CSSC[C@@H](NC(=O)[C@@H](CCCCN)NC(=O)[C@H](N)CCCNC(=N)N)C(=O)NCC(=O)N[C@@H](Cc2ccccc2)C(=O)N1)[C@@H](C)O)C(N)=O` [(98)] (H-[dR][dK][dC]GF[dC][dW]T[dW][dV]-NH2; disulfide 3-6) returned an IC50 of 28.7 µM.

On to `CC(C)[C@@H](NC(=O)[C@@H](Cc1c[nH]c2ccccc12)NC(=O)[C@H](NC(=O)[C@H](Cc1c[nH]c2ccccc12)NC(=O)[C@H]1CSSC[C@@H](NC(=O)[C@@H](CCCCN)NC(=O)[C@H](N)CCCNC(=N)N)C(=O)NCC(=O)N[C@@H](Cc2ccccc2)C(=O)N1)[C@H](C)O)C(N)=O` [(99)] (H-[dR][dK][dC]GF[dC]W[dT][dW][dV]-NH2; disulfide 3-6), for which the IC50 came to 3.1 µM.

Turning to `CC(C)[C@@H](NC(=O)[C@@H](CCC(N)=O)NC(=O)[C@H](NC(=O)[C@@H](Cc1ccc(O)cc1)NC(=O)[C@H]1CSSC[C@@H](NC(=O)[C@@H](CCCCN)NC(=O)[C@H](N)CCCNC(=N)N)C(=O)NCC(=O)N[C@@H](Cc2ccccc2)C(=O)N1)[C@H](C)O)C(N)=O` [(100)] (H-[dR][dK][dC]GF[dC][dY][dT][dQ][dV]-NH2; disulfide 3-6), the IC50 was 88.3 µM.

As for `CC(C)[C@@H](NC(=O)[C@@H](Cc1c[nH]c2ccccc12)NC(=O)[C@H](NC(=O)[C@@H](Cc1c[nH]c2ccccc12)NC(=O)[C@H]1CSSC[C@@H](NC(=O)[C@@H](CCCCN)NC(=O)[C@@H](N)CCCNC(=N)N)C(=O)NCC(=O)N[C@@H](Cc2ccccc2)C(=O)N1)[C@H](C)O)C(N)=O` [(101)] (H-R[dK][dC]GF[dC][dW][dT][dW][dV]-NH2; disulfide 3-6), the IC50 was found to be 33.9 µM.

`CC(=O)N[C@H](CCCCN)C(=O)N[C@@H]1CSSC[C@H](C(=O)N[C@H](Cc2c[nH]c3ccccc23)C(=O)N[C@@H](C(=O)N[C@H](Cc2c[nH]c3ccccc23)C(=O)N[C@@H](C(N)=O)C(C)C)[C@H](C)O)NC(=O)[C@H](Cc2ccc(O)cc2)NC(=O)CNC1=O` [(104)] (Ac-[dK][dC]GY[dC][dW][dT][dW][dV]-NH2; disulfide 2-5): the IC50 was 191 µM.

Consider `C[C@H](O)[C@H]1NC(=O)[C@@H](Cc2c[nH]c3ccccc23)NC(=O)[C@H]2CSSC[C@@H](NC(=O)[C@H](NC(=O)[C@H](N)CCCNC(=N)N)CCCCNC(=O)CC[C@H](C(N)=O)NC(=O)[C@@H](Cc3c[nH]c4ccccc34)NC1=O)C(=O)NCC(=O)N[C@@H](Cc1ccccc1)C(=O)N2` [(105)] (H-[dR][dK][dC]GF[dC][dW][dT][dW][dE]-NH2; lactam 2-10; disulfide 3-6; N-terminus assumed), for which the half-inhibitory concentration (IC50) turned out to be 97.8 µM.

The compound `CC(C)[C@@H](NC(=O)[C@@H](Cc1c[nH]c2ccccc12)NC(=O)[C@H]1CCC(=O)NCCCC[C@@H](NC(=O)[C@H](N)CCCNC(=N)N)C(=O)N[C@@H]2CSSC[C@@H](NC(=O)[C@H](Cc3ccccc3)NC(=O)CNC2=O)C(=O)N[C@H](Cc2c[nH]c3ccccc23)C(=O)N1)C(N)=O` [(106)] (H-[dR][dK][dC]GF[dC][dW][dE][dW][dV]-NH2; lactam 2-8; disulfide 3-6; N-terminus assumed) registered a concentration for half-maximal inhibition (IC50) of 8 µM.

In turn, `CC[C@@H](C)[C@@H](NC(=O)[C@@H](CCCCN)NC(=O)[C@H](N)CCCNC(=N)N)C(=O)NCC(=O)N[C@@H]1CSSC[C@H](C(=O)N[C@H](Cc2c[nH]c3ccccc23)C(=O)N[C@@H](C(N)=O)C(C)C)NC(=O)[C@@H](Cc2c[nH]c3ccccc23)NC(=O)[C@@H]([C@H](C)CC)NC1=O` [(107)] (H-[dR][dK][dI]G[dC][dI][dW][dC][dW][dV]-NH2; disulfide 5-8) returned an IC50 of 8 µM.
